Tests used:
[1] = test system: peritoneal resident macrophages (PRM); assay: In vivo treatment/ex vivo PRM activation, TNFα and IL-6 in supernatant; set-up: species or system hVISTA mice
Experimental: Based thereon we developed a model to allow us to evaluate long-term anti-inflammatory impact of ADC on specific target populations, such as PRMs. […] In the absence of GC treatment, after 2h PRMs become highly activated as shown by increases in cytokine production. […] The objective of these studies was to evaluate the efficacy and pharmacodynamic range of INX human VISTA antibodies conjugated to a glucocorticoid payload as compared to free Dex.
After euthanasia, mice were injected in the peritoneal cavity with 7 ml of PBS/0.5% BSA/2 mM EDTA. After a brief massage of the peritoneum, a small incision was performed and the peritoneal lavage collected. PRM were isolated using negative selection (Miltenyi kit, ref 130-110-434). Spleen were dissected and dissociated mechanically; monocytes were isolated using […] (Stem Cell, EasySep™ Mouse CD11b Positive Selection Kit II).
PRMs were resuspended in RPMI 1640 with 10% FBS, 10 mM Hepes, Penicillin/Streptomycin and glutamine and 100,000 cells were plated per well in a 96-well tissue culture plate. Supernatants were collected at 2 and 24h post plating and stored at −80° C. […]
• BioLegend (cat #430904) ELISA MAX Deluxe Set Mouse TNF-α • BioLegend (cat #431304) ELISA MAX Deluxe Set Mouse IL-6
ELISAs were conducted following the manufacturer's included protocol.

FKBP5 [2] = assay: FKBP5 transcription in peritoneal resident macrophages (PRM) and spleen cells after in vivo treatment; set-up: species or system hVISTA mice; details: linker payloads as anti-VISTA conjugates
[3] = test system: LPS stimulated human PBMCs; assay: LPS stimulated human PBMC, IL-1β and IL-6 ELISA; assay type: cell-based
How it was run: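 Human PBMC (1-2 healthy donors), 150,000 cells/well, treated with test agents at 1,000 nM down to 1 nM or 0.2 nM, in duplicate. LPS at 1 ng/ml added immediately after free payload or 4 h after conjugates; IL-1β and IL-6 in supernatants measured by ELISA.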

[4] = Linker payload and released payload in serum and peripheral blood leukocytes (MS); assay type: in vivo, cynomolgus monkey; details: INX234P 15 mg/Kg i.v., analyte as labelled
Experimental: MS quantification was performed by Quintara Discovery on cell pellets and on serum.
Briefly, cell pellets were suspended with 100 μL of 20% methanol.
Normalization of the data to cell volume (ng/ml) was done by first calculating the cell numbers based on the PBL or WBC hematological count and the fixed volume for each sample processed for MS. We then converted to volume by using the arbitrary mean corpuscular volume (MCV) of […] per cell that is the most frequently adopted (3).
Each plasma sample was extracted with acetonitrile: methanol containing internal standard (Verapamil).

FKBP5 [5] = assay: FKBP5 transcription in isolated human monocytes, B cells and Tregs; assay type: cell-based; details: Experiment 1: 20 nM payload, 1 day
Text: Monocytes or B cells were isolated from healthy donor blood samples and treated with free steroid, anti-VISTA conjugated steroid, or conjugated isotype control. RNA was isolated, and change in FKBP5 transcript level assessed by qPCR.
The various immune populations were isolated using different cell isolation kits and following manufacturer instructions: • EasySep Human monocyte enrichment kit without CD16 depletion (StemCell cat #19058) • Pan B cell isolation kit, human (Miltenyi Biotec, 130-101-638). • EasySep™ Human CD4+CD127 low CD49d-regulatory T cell enrichment Kit (StemCell cat #19232)
Monocytes, B cells or Tregs were plated (from single donors) at 2×10^6 cells per well in a 12-well plate in RPMI, 10% human AB serum, 10 mM Hepes, 1× Penicillin/Streptomycin/Glutamine.
For single dose experiments, cells were treated with 20 nM free J payload or INX-SM-3 payload or the molar payload equivalent of huIgG1si J, INX201J or INX231P (the linked form of INX-SM-3). […]
After one wash with PBS, RNA was isolated from cell pellets using either the RNeasy Plus Mini kit (Qiagen, PN: 74136) or NucleoSpin RNA Plus (Macherey-Nagel #740984.250). […] RNA concentration was assessed by UV spectroscopy using a Nanodrop 2000. […]
Quantitative Real-Time PCR was done using Taqman master mix 2× kit (#4369016) and run on a QuantStudio3 from Applied Biosystem. […]

[6] = linker/payloads as anti-VISTA conjugates

C[C@]12C=CC(=O)C=C1CC[C@@H]1[C@@H]2[C@@H](O)C[C@@]2(C)[C@H]1C[C@H]1O[C@@H](c3ccc(OC4CC5(CC(NC(=O)[C@H](CCC(=O)O)NC(=O)CNC(=O)CBr)C5)C4)cc3F)O[C@]12C(=O)CO (stereo partly drawn) [INX A5, (S)-4-(2-(2-bromoacetamido)acetamido)-5-((6-(3-fluoro-4-((6aR,6bS,7S,8aS,8bS,10R,11aR,12aS,12bS)-7-hydroxy-8b-(2-hydroxyacetyl)-6a,8a-dimethyl-4-oxo-2,4,6a,6b,7,8,8a,8b,11a,12,12a,12b-dodecahydro-1H-naphtho[2′,1′:4,5]indeno[1,2-d][1,3]dioxol-10-yl)phenoxy)spiro[3.3]heptan-2-yl)amino)-5-oxopentanoic acid]
controlling cytokine response in PRM when dosed 14 days early (conclusions) [1, 6]: significant potency in controlling cytokine response in PRM when dosed 14 days early | FKBP5 induction when dosed 14 days early (conclusions) (FKBP5 [2]): still display significant potency when dosed 14 days early in regard to FKBP5 induction | potency of conjugated linker payloads over INX J (conclusions) [3]: enhanced potency

C[C@]12C=CC(=O)C=C1CC[C@@H]1[C@@H]2[C@@H](O)C[C@@]2(C)[C@H]1C[C@H]1O[C@@H](c3ccc(CC4CC5(C4)CC(NC(=O)[C@H](CC(N)=O)NC(=O)CNC(=O)CBr)C5)cc3)O[C@]12C(=O)CO (stereo partly drawn) [INX A11, (S)-2-(2-(2-bromoacetamido)acetamido)-N1-(6-(4-((6aR,6bS,7S,8aS,8bS,10R,11aR,12aS,12bS)-7-hydroxy-8b-(2-hydroxyacetyl)-6a,8a-dimethyl-4-oxo-2,4,6a,6b,7,8,8a,8b,11a,12,12a,12b-dodecahydro-1H-naphtho[2′,1′:4,5]indeno[1,2-d][1,3]dioxol-10-yl)benzyl)spiro[3.3]heptan-2-yl) succinamide]
controlling cytokine response in PRM when dosed 14 days early (conclusions) [1, 6]: significant potency in controlling cytokine response in PRM when dosed 14 days early | FKBP5 induction when dosed 14 days early (conclusions) (FKBP5 [2]): still display significant potency when dosed 14 days early in regard to FKBP5 induction | potency of conjugated linker payloads over INX J (conclusions) [3]: enhanced potency

C[C@]12C=CC(=O)C=C1CC[C@@H]1[C@@H]2[C@@H](O)C[C@@]2(C)[C@H]1C[C@H]1O[C@@H](c3ccc(CC45CC(NC(=O)[C@H](CCC(=O)O)NC(=O)CNC(=O)CBr)(C4)C5)cc3)O[C@]12C(=O)COP(=O)(O)O [INX T, (S)-4-(2-(2-bromoacetamido)acetamido)-5-((3-(4-((6aR,6bS,7S,8aS,8bS,10R,11aR,12aS,12bS)-7-hydroxy-6a,8a-dimethyl-4-oxo-8b-(2-(phosphonooxy)acetyl)-2,4,6a,6b,7,8,8a,8b,11a,12,12a,12b-dodecahydro-1H-naphtho[2′,1′:4,5]indeno[1,2-d][1,3]dioxol-10-yl)benzyl)bicyclo[1.1.1]pentan-1-yl)amino)-5-oxopentanoic acid]
controlling cytokine response in PRM when dosed 14 days early (conclusions) [1, 6]: significant potency in controlling cytokine response in PRM when dosed 14 days early | FKBP5 induction when dosed 14 days early (conclusions) (FKBP5 [2]): still display significant potency when dosed 14 days early in regard to FKBP5 induction | FKBP5 induction in splenic cells (conclusions) (FKBP5 [2]; day 1, 7, 14): Significant FKBP5 induction is seen at day 1, 7, and 14 in splenic cells

C[C@]12C=CC(=O)C=C1CC[C@@H]1[C@@H]2[C@@H](O)C[C@@]2(C)[C@H]1C[C@H]1O[C@@H](c3ccc(CC45CC(NC(=O)[C@H](CCCCN)NC(=O)CNC(=O)CBr)(C4)C5)cc3)O[C@]12C(=O)CO [INX W, (S)-6-amino-2-(2-(2-bromoacetamido)acetamido)-N-(3-(4-((6aR,6bS,7S,8aS,8bS,10R,11aR,12aS,12bS)-7-hydroxy-8b-(2-hydroxyacetyl)-6a,8a-dimethyl-4-oxo-2,4,6a,6b,7,8,8a,8b,11a,12,12a,12b-dodecahydro-1H-naphtho[2′,1′:4,5]indeno[1,2-d][1,3]dioxol-10-yl)benzyl)bicycle[1.1.1]pentan-1-yl) hexanamide]
preventing ex vivo induction of TNFα and IL-6 in PRM ([1]; Experiment 9: linker payloads as conjugates, 7 days post 0.2 mg/Kg of GC payload, supernatant 24h): remarkable long-term potency in controlling cytokine responses | potency in PRM cytokine model when dosed 7 days early (conclusions) [1, 6]: remarkably more potent than payloads INX P and INX R when dosed 7 days early | FKBP5 induction when dosed 14 days early (conclusions) (FKBP5 [2]): still display significant potency when dosed 14 days early in regard to FKBP5 induction

C[C@]12C=CC(=O)C=C1CC[C@@H]1[C@@H]2[C@@H](O)C[C@@]2(C)[C@H]1C[C@H]1O[C@@H](c3ccc(CC45CC(NC(=O)[C@H](CCC(=O)O)NC(=O)CNC(=O)CSC[C@H](N)C(=O)O)(C4)C5)cc3)O[C@]12C(=O)CO [P-cys, (S)-4-(2-(2-(((R)-2-amino-2-carboxyethyl)thio)acetamido)acetamido)-5-((3-(4-((6aR,6bS,7S,8aS,8bS,10R,11aR,12aS,12bS)-7-hydroxy-8b-(2-hydroxyacetyl)-6a,8a-dimethyl-4-oxo-2,4,6a,6b,7,8,8a,8b,11a,12,12a,12b-dodecahydro-1H-naphtho[2′,1′:4,5]indeno[1,2-d][1,3]dioxol-10-yl)benzyl)bicyclo[1.1.1]pentan-1-yl)amino)-5-oxopentanoic acid]
serum level by day 8 (192 hr) post injection [4]: below detection | time of peak concentration in serum [4]: ~12 h | Kp ([4]; cynomolgus monkey, in vivo, read-out: intracellular (PBL) levels as compared to serum): 100

C[C@]12C=CC(=O)C=C1CC[C@@H]1[C@@H]2[C@@H](O)C[C@@]2(C)[C@H]1C[C@H]1O[C@@H](c3ccc(Cc4cccc(N)c4)cc3)O[C@]12C(=O)CO [free J payload, reference compound]
FKBP5 transcription in monocytes and B cells (FKBP5 [5]): robust increase in FKBP5 transcription was observed with free J payload in both monocytes and B cells

From patent US20250108119A1, “NOVEL STEROID PAYLOADS, STEROID LINKERS, ADCs CONTAINING AND USE THEREOF” (IMMUNEXT, INC., priority 2021, published 2025)
